Measurements published in patent US20250011826A1, “mRNA CAP ANALOGUE AND USE THEREOF” (HANMI FINE CHEMICAL CO., LTD., priority 2021, published 2025).

Experiments:
[1] = system: HeLa cells; experiment: Translation of luciferase mRNA in HeLa cells (luciferase activity after transfection of capped mRNA); format: cell-based
Protocol: The translational activity of the mRNAs generated by the IVT reactions of each Example 15, Example 16, and ^7mG(3OMe)pppA(2′OMe)pG was evaluated by transfecting the corresponding mRNAs into the HeLa cell line. All mRNAs synthesized through IVT reaction before transfection were subjected to poly(A) tailing process. Specifically, IVT mRNA, whose mRNA synthesis reaction was terminated by adding DNase 1, was mixed with IVT mRNA:10× poly (A) polymerase reaction buffer:10 mM ATP solution:poly (A) polymerase enzyme (4 KU/ml):nuclease-free water=20:10:10:2:58 ratio (volume/volume), reacted at 37° C. for 30 minutes to 1 hour, and then incubated at 4° C. to terminate the reaction. […] Cells were harvested 6, 12, and 24 hours after transfection, and luciferase activity was measured using Renilla-Glo™ Luciferase Assay kit (Promega catalog #E2710) according to the manufacturer's recommendations: After removing the medium from the transfected cells, 50 μl phosphate buffer solution (PBS) was added. Afterwards, 50 μl of Renilla-Glo™ Luciferase Assay reagent was added, mixed, and incubated for 10 minutes, and then luciferase activity was detected using Varioskan LUX Multimode Microplate Reader (Thermo Fisher) (FIG. 5). […]

[2] = biological target: T7 RNA polymerase (Escherichia phage T7, UniProt P00573); experiment: In vitro transcription of luciferase mRNA by co-transcriptional capping (IVT yield); format: biochemical; details: 8 mM cap analog, luciferase DNA template, 37° C. 2 to 3 hours; compared with Cleancap AG(3′OMe) designated as 100%; FIG. 4
T7 RNA polymerase, sequence (P00573 whole entry): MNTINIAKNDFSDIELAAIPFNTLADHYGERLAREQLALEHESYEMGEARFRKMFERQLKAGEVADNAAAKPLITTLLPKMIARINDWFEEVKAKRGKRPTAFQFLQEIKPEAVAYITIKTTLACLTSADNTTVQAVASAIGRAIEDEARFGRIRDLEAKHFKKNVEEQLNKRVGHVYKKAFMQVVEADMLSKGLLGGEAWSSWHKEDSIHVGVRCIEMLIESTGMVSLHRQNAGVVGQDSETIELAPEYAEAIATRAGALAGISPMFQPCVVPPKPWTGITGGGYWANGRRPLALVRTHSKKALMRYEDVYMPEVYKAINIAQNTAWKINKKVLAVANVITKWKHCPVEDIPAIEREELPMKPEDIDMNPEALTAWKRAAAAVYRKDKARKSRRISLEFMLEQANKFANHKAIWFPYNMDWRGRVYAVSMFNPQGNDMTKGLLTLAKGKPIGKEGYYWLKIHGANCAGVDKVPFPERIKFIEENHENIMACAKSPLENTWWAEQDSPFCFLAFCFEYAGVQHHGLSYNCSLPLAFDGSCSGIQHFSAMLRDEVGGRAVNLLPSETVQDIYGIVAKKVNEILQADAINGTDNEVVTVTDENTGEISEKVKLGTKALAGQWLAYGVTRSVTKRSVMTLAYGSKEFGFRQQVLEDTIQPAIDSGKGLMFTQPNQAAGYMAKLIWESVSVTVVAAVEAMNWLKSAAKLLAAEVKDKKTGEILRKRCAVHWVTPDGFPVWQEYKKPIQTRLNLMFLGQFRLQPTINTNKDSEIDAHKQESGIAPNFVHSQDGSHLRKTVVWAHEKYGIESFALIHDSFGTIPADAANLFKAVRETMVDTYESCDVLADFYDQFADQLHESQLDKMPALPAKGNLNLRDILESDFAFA
Protocol: For the mRNA synthesis reaction using the compounds prepared in Example 15 and Example 16 above, a transcription buffer was used, and the composition of the buffer was Tris-Cl buffer: spermidine:Triton X=4:2:1 volume ratio. In the buffer, 50 μg/ml luciferase DNA transcription template, 10 mM ATP, 10 mM CTP, 10 mM UTP, 2 mM GTP, and 8 mM compound prepared in Example 15 or Example 16, 300 KU/ml T7 RNA polymerase, 2 KU/ml RNase inhibitor protein, 20 U/ml inorganic pyrophosphatase, 40 mM Tris-HCl (pH 8.0), 50 mM magnesium chloride, and 10 mM dithiothreitol were added to prepare the transcription reaction mixture. […] The concentration of the purified mRNA sample was determined using a fluorometer instrument, and the total amount of mRNA was calculated by multiplying the concentration and reaction volume. Then, in order to derive the mRNA in vitro transcription (IVT) yield, the total amount of mRNA synthesized using each different cap analog was divided by the input L-DNA content to quantify the IVT yield value according to the cap analog. […] This may be calculated using [Equation 1] below. […]

## ^7mG(2′ or 3′monopivaloyl)pppA(2′OMe)pG [Example 16]
[1]; 100 ng mRNA per well, 6 to 24 hours after transfection, compared with mRNA capped with ^7mG(3′OMe)pppA(2′OMe)pG, FIG. 5
  luciferase activity of mRNA capped with the compound: higher luciferase activity
[1]; 24 hours after transfection, inferred, compared with ^7mG(3′OMe)pppA(2′OMe)pG, FIG. 6
  residual rate of protein expressed by capped mRNA: higher
[2]
  IVT yield of mRNA relative to ^7mG(3′OMe)pppA(2′OMe)pG: almost the same yield

## CO[C@@H]1[C@H](OP(=O)(O)OC[C@H]2O[C@@H](n3cnc4c(=O)[nH]c(N)nc43)[C@H](O)[C@@H]2O)[C@@H](COP(=O)(O)OP(=O)(O)OP(=O)(O)OC[C@H]2O[C@@H](n3c[n+](C)c4c(=O)[nH]c(N)nc43)[C@H](OC(=O)C(C)(C)C)[C@@H]2OC(=O)C(C)(C)C)O[C@H]1n1cnc2c(N)ncnc21.[Na+].[Na+].[Na+] [Example 15, ^7mG(2′,3′ Pivaloyl)pppA(2′ OMe)pG]
[2]
  IVT yield of mRNA relative to ^7mG(3′OMe)pppA(2′OMe)pG: almost the same yield
